Data reported in patent US20250177412A1, “SMALL-MOLECULE INHIBITORS TARGETING THE BOB1/OCT1 INTERFACE” (NANTES UNIVERSITE, priority 2022, published 2025).

Test system: B cells
Assay: B cell apoptosis by intracellular active caspase-3 staining
Assay type: cell-based
Conditions: for percentage of caspase-3 positive B cells: day 7, mean±SD
Description: FIG. 5E-F show corresponding summarized data (n=8) for the frequency of caspase-3^+CD38^+/− non-plasmablasts (FIG. 5E) and caspase-3^+CD20^lowCD38^++ plasmablasts (FIG. 5F) at Day 7. […] Error bars are mean±SD. P values were determined with one-way ANOVA with Geisser-Greenhouse's multiple comparisons test.
B cells were stimulated to differentiate into plasmablasts using a two-phase cell culture protocol as previously described. Briefly, B cells were seeded at 4×10^5 cells/mL in 24-well plates and activated during 4 days with 50 ng/mL recombinant human soluble CD40L (R&D Systems), 2.5 μg/mL CpG oligodeoxynucleotide (ODN) 2006 (Amidogen or Cayla Invivogen), 2 μg/mL F(ab′)2 fragment goat anti-human IgA+IgG+IgM (H+L) polyclonal Abs (anti-BCR) (Jackson ImmunoResearch Laboratories), and 50 U/mL human IL-2 (SARL Pharmaxie or Novartis). Day 4-activated B cells were washed and cultured at the same concentration for three additional days in a fresh medium containing 50 U/mL human IL-2, 10 ng/mL human IL-4 (R&D Systems), and 10 ng/mL human IL-10 (R&D Systems) to induce B cell differentiation into plasmablasts. At days 0, 4 and 7, B cells were stained with viability marker LIVE/DEAD Fixable Aqua Dead Cell Stain (Thermofisher) to identify dead cells, followed by extracellular staining with anti-human mAbs: anti-CD20 FITC, anti-IgD BUV395, anti-CD27 BUV737, anti-CD38 BV605 (all from BD Biosciences) and analyzed by flow cytometry (FACSCelesta™, BD Biosciences). In some experiments, B cell apoptosis was evaluated by intracellular active caspase-3 staining (Caspase-3-PE, BD Biosciences).

## Cc1ccc(NC(=O)C2CN(c3nc(NCCCc4ccc(F)cc4)nc(NCCC(=O)O)n3)c3ccccc3O2)cc1Cl (centres unmarked) [compound 005, 3-((4-(2-((3-chloro-4-methylphenyl)carbamoyl)-2,3-dihydro-4H-benzo[b][1,4]oxazin-4-yl)-6-((3-(4-fluorophenyl)propyl)amino)-1,3,5-triazin-2-yl)amino)propanoic acid]
5 μM
  percentage of caspase-3 positive B cells: 33.9±15.5%
10 μM
  percentage of caspase-3 positive B cells: 25.6±7.5%
15 μM
  percentage of caspase-3 positive B cells: 30.8±7.9%
Activation phase (days 0-4), even at high concentrations
  frequencies of caspase-3 positive cells: did not affect
Day 7
  susceptibility to apoptosis of CD20loCD38hi plasmablast and CD20+CD38+/- non-plasmablast populations: reduced susceptibility to apoptosis
